{"source": "patent US6399745B1", "about": "“Use of leptin antagonists for treating insulin resistance in type II diabetes” (Aventis Pharma Deutschland GmbH, priority 1996, dated 2002)", "key": {"isolated rat adipocytes [1]": {"test_system": "isolated rat adipocytes", "test": "Glucose transport (2-deoxyglucose uptake) in isolated rat adipocytes after primary culture with leptin, basal and insulin-stimulated", "type": "cell-based", "settings": "for Glucose Transport, stimulation factor for insulin (stimulated/basal): Insulin concentration: 5 nM", "experimental": "(§1) Adipocytes were prepared from the epididymal fat tissue of male Wistar rats (140-160 g, Hoechst AG breeding station, Kastengrund) by means of digesting with collagenase (Rodbell, 1964, J. Biol. Chem. 239, 375-380), washed twice with KRH (25 mM Hepes free acid, 25 mM Hepes sodium salt, 80 mM NaCl, 1 mM MgSO4, 2 mM CaCl2, 6 mM KCl, 1 mM sodium pyruvate, 0.5% BSA) and once with DMEM (Dulbecco's minimal essential medium), supplemented with 5.5 mM glucose, 20 mM Hepes (pH 7.4), 2% fetal calf serum, 1% BSA, 50 U of penicillin/ml, […], by means of flotation (800×g, 1 min, in small plastic tubes), and finally diluted to a volume of 20 ml of DMEM/g wet weight of the fat tissue (cell titer: approximately 2.5×10^5 cells/ml).\nThe adipocytes were incubated, at 37° C. for 15-18 h under an atmosphere of 5% CO2 and with gentle shaking, in supplemented (see above) DMEM in the presence of 100 nM phenylisopropyladenosine (4 ml of DMEM to 1 ml of cells, cell titer approximately 5×10^4 cell/ml, in 50 ml sterile polypropylene: tubes) and in the presence or absence of leptin. The adipocytes were subsequently washed three times with cold KRH and adjusted to a cell titer of approximately 3×10^5 cells/ml by adding 0.7 ml of glucose-free KRH to the cell layer which remained after the complete removal of the last washing solution. In order to determine the capacity of the adipocytes to be stimulated by insulin, and their sensitivity to insulin, following the primary culture, the washed adipocytes were incubated at 37° C. for 20 min in the absence or presence of human insulin (0.02-50 nM final concentration), and glucose transport or lipogenesis was then measured.\nGlucose transport was measured as the specific uptake of the non-metabolizable glucose analog 2-deoxyglucose (Muller and Wied, 1993, Diabetes 42, 1852-1867). 50 μl of the adipocyte suspension in KRH, which suspension had or had not been preincubated with insulin (see above), were incubated, at 25° C. for 5 min, with 50 μl of KRH which was supplemented with 2-deoxy-D-[2,6-^3H]glucose (0.5 μCi, 0.2 mM). The incubation mixtures were transferred to thin soft-plastic centrifuge tubes, each of which already contained 200 μl of dinonyl phthalate oil, and immediately centrifuged (2,000×g, 30 sec). Using special shears, the tubes were severed within the oil layer (in the vicinity of the upper edge) and the upper halves of the tubes, together with the cell layers which had in each case been floated onto the oil layer, were transferred to scintillation vials. After 10 ml of scintillation fluid (water-based) had been added, the radioactivity associated with the cells was measured. In order to correct for 2-deoxyglucose which had become enclosed in the cell interstices, or had diffused into the cells, in a non-specific manner, the radioactivity of cells which had been preincubated with cytochalasin B (20 μM) was subtracted from the total cell-associated radioactivity of each individual incubation mixture (Gliemann et al., 1972, Biochim. Biophys. Acta 286, 1-9).\nIsolated rat adipocytes were incubated for 15 h in primary culture in the presence or absence of increasing concentrations of leptin. […] The stimulation factor for insulin was calculated as the ratio between insulin-stimulated and basal activities. Each value represents the mean from two independent adipocyte cultures with activity being determined two or three times in each case.\nThe cells were then washed and tested for the stimulation of glucose transport by differing concentrations of insulin. Glucose transport activity is given as a “dpm value” of the 2deoxy-[^3H]glucose which is specifically associated with the cells. Each value represents the mean from two independent adipocyte cultures with the activity being determined four times in each case."}, "isolated rat adipocytes [2]": {"test_system": "isolated rat adipocytes", "test": "Antagonism of fragment 116-167 to the leptin effect: insulin-stimulated glucose transport", "type": "cell-based", "settings": "Leptin: 10 nM 17.5 h, no fragment; Insulin: 5 nM", "experimental": "as §1, with “cells/ml). […]” for “cells/ml).”\nGlucose transport was measured as the specific uptake of the non-metabolizable glucose analog 2-deoxyglucose (Muller and Wied, 1993, Diabetes 42, 1852-1867). […] After 10 ml of scintillation fluid (water-based) had been added, the radioactivity associated with the cells was measured. […]\nIsolated rat adipocytes were incubated for 17.5 h in primary culture in the presence or absence of leptin (10 nM) and increasing concentrations of leptin fragment 116-167. […] The stimulation factor for insulin was calculated as the ratio between the insulin-stimulated activity and the basal activity. […]"}}, "data": [{"substance": "Leptin", "values": [{"measurement": "glucose transport, uptake of 3H-labeled 2-deoxyglucose", "setting": "isolated rat adipocytes [1]; leptin 5 nM 16.5 h, insulin 2 nM", "value": 2140, "unit": "dpm"}, {"measurement": "glucose transport, uptake of 3H-labeled 2-deoxyglucose", "setting": "isolated rat adipocytes [1]; leptin 5 nM 16.5 h, insulin 5 nM", "value": 2950, "unit": "dpm"}, {"measurement": "glucose transport, uptake of 3H-labeled 2-deoxyglucose", "setting": "isolated rat adipocytes [1]; leptin 5 nM 16.5 h, insulin 10 nM", "value": 3682, "unit": "dpm"}, {"measurement": "glucose transport, uptake of 3H-labeled 2-deoxyglucose", "setting": "isolated rat adipocytes [1]; leptin 5 nM 16.5 h, insulin 50 nM", "value": 4031, "unit": "dpm"}, {"measurement": "glucose transport, uptake of 3H-labeled 2-deoxyglucose", "setting": "isolated rat adipocytes [1]; leptin 5 nM 16.5 h, no insulin (basal)", "value": 712, "unit": "dpm"}, {"measurement": "Glucose Transport, stimulation factor for insulin (stimulated/basal)", "setting": "isolated rat adipocytes [1]; leptin 10 nM 15 h", "value": 3.5}, {"measurement": "glucose transport, uptake of 3H-labeled 2-deoxyglucose", "setting": "isolated rat adipocytes [1]; leptin 10 nM 16.5 h, insulin 0.02 nM", "value": 773, "unit": "dpm"}, {"measurement": "glucose transport, uptake of 3H-labeled 2-deoxyglucose", "setting": "isolated rat adipocytes [1]; leptin 10 nM 16.5 h, insulin 0.05 nM", "value": 802, "unit": "dpm"}, {"measurement": "glucose transport, uptake of 3H-labeled 2-deoxyglucose", "setting": "isolated rat adipocytes [1]; leptin 10 nM 16.5 h, insulin 0.1 nM", "value": 856, "unit": "dpm"}, {"measurement": "glucose transport, uptake of 3H-labeled 2-deoxyglucose", "setting": "isolated rat adipocytes [1]; leptin 10 nM 16.5 h, insulin 0.2 nM", "value": 941, "unit": "dpm"}, {"measurement": "glucose transport, uptake of 3H-labeled 2-deoxyglucose", "setting": "isolated rat adipocytes [1]; leptin 10 nM 16.5 h, insulin 0.5 nM", "value": 1209, "unit": "dpm"}, {"measurement": "glucose transport, uptake of 3H-labeled 2-deoxyglucose", "setting": "isolated rat adipocytes [1]; leptin 10 nM 16.5 h, insulin 1 nM", "value": 1573, "unit": "dpm"}, {"measurement": "glucose transport, uptake of 3H-labeled 2-deoxyglucose", "setting": "isolated rat adipocytes [1]; leptin 10 nM 16.5 h, insulin 2 nM", "value": 2061, "unit": "dpm"}, {"measurement": "glucose transport, uptake of 3H-labeled 2-deoxyglucose", "setting": "isolated rat adipocytes [1]; leptin 10 nM 16.5 h, insulin 5 nM", "value": 2476, "unit": "dpm"}, {"measurement": "glucose transport, uptake of 3H-labeled 2-deoxyglucose", "setting": "isolated rat adipocytes [1]; leptin 10 nM 16.5 h, insulin 10 nM", "value": 2710, "unit": "dpm"}, {"measurement": "glucose transport, uptake of 3H-labeled 2-deoxyglucose", "setting": "isolated rat adipocytes [1]; leptin 10 nM 16.5 h, insulin 50 nM", "value": 2967, "unit": "dpm"}, {"measurement": "glucose transport, uptake of 3H-labeled 2-deoxyglucose", "setting": "isolated rat adipocytes [1]; leptin 10 nM 16.5 h, no insulin (basal)", "value": 755, "unit": "dpm"}, {"measurement": "Glucose Transport, stimulation factor for insulin (stimulated/basal)", "setting": "isolated rat adipocytes [1]; leptin 30 nM 15 h", "value": 2.35}, {"measurement": "glucose transport, uptake of 3H-labeled 2-deoxyglucose", "setting": "isolated rat adipocytes [1]; leptin 30 nM 16.5 h, insulin 0.02 nM", "value": 704, "unit": "dpm"}, {"measurement": "glucose transport, uptake of 3H-labeled 2-deoxyglucose", "setting": "isolated rat adipocytes [1]; leptin 30 nM 16.5 h, insulin 0.05 nM", "value": 745, "unit": "dpm"}, {"measurement": "glucose transport, uptake of 3H-labeled 2-deoxyglucose", "setting": "isolated rat adipocytes [1]; leptin 30 nM 16.5 h, insulin 0.1 nM", "value": 789, "unit": "dpm"}, {"measurement": "glucose transport, uptake of 3H-labeled 2-deoxyglucose", "setting": "isolated rat adipocytes [1]; leptin 30 nM 16.5 h, insulin 0.2 nM", "value": 852, "unit": "dpm"}, {"measurement": "glucose transport, uptake of 3H-labeled 2-deoxyglucose", "setting": "isolated rat adipocytes [1]; leptin 30 nM 16.5 h, insulin 0.5 nM", "value": 943, "unit": "dpm"}, {"measurement": "glucose transport, uptake of 3H-labeled 2-deoxyglucose", "setting": "isolated rat adipocytes [1]; leptin 30 nM 16.5 h, insulin 1 nM", "value": 1183, "unit": "dpm"}, {"measurement": "glucose transport, uptake of 3H-labeled 2-deoxyglucose", "setting": "isolated rat adipocytes [1]; leptin 30 nM 16.5 h, insulin 2 nM", "value": 1374, "unit": "dpm"}, {"measurement": "glucose transport, uptake of 3H-labeled 2-deoxyglucose", "setting": "isolated rat adipocytes [1]; leptin 30 nM 16.5 h, insulin 5 nM", "value": 1782, "unit": "dpm"}, {"measurement": "glucose transport, uptake of 3H-labeled 2-deoxyglucose", "setting": "isolated rat adipocytes [1]; leptin 30 nM 16.5 h, insulin 10 nM", "value": 1972, "unit": "dpm"}, {"measurement": "glucose transport, uptake of 3H-labeled 2-deoxyglucose", "setting": "isolated rat adipocytes [1]; leptin 30 nM 16.5 h, insulin 50 nM", "value": 2114, "unit": "dpm"}, {"measurement": "glucose transport, uptake of 3H-labeled 2-deoxyglucose", "setting": "isolated rat adipocytes [1]; leptin 30 nM 16.5 h, no insulin (basal)", "value": 688, "unit": "dpm"}, {"measurement": "Glucose Transport, stimulation factor for insulin (stimulated/basal)", "setting": "isolated rat adipocytes [1]; leptin 100 nM 15 h", "value": 1.5}, {"measurement": "glucose transport, uptake of 3H-labeled 2-deoxyglucose", "setting": "isolated rat adipocytes [1]; leptin 100 nM 16.5 h, insulin 0.02 nM", "value": 766, "unit": "dpm"}, {"measurement": "glucose transport, uptake of 3H-labeled 2-deoxyglucose", "setting": "isolated rat adipocytes [1]; leptin 100 nM 16.5 h, insulin 0.05 nM", "value": 780, "unit": "dpm"}, {"measurement": "glucose transport, uptake of 3H-labeled 2-deoxyglucose", "setting": "isolated rat adipocytes [1]; leptin 100 nM 16.5 h, insulin 0.1 nM", "value": 803, "unit": "dpm"}, {"measurement": "glucose transport, uptake of 3H-labeled 2-deoxyglucose", "setting": "isolated rat adipocytes [1]; leptin 100 nM 16.5 h, insulin 0.2 nM", "value": 813, "unit": "dpm"}, {"measurement": "glucose transport, uptake of 3H-labeled 2-deoxyglucose", "setting": "isolated rat adipocytes [1]; leptin 100 nM 16.5 h, insulin 0.5 nM", "value": 883, "unit": "dpm"}, {"measurement": "glucose transport, uptake of 3H-labeled 2-deoxyglucose", "setting": "isolated rat adipocytes [1]; leptin 100 nM 16.5 h, insulin 1 nM", "value": 896, "unit": "dpm"}, {"measurement": "glucose transport, uptake of 3H-labeled 2-deoxyglucose", "setting": "isolated rat adipocytes [1]; leptin 100 nM 16.5 h, insulin 2 nM", "value": 1034, "unit": "dpm"}, {"measurement": "glucose transport, uptake of 3H-labeled 2-deoxyglucose", "setting": "isolated rat adipocytes [1]; leptin 100 nM 16.5 h, insulin 5 nM", "value": 1205, "unit": "dpm"}, {"measurement": "glucose transport, uptake of 3H-labeled 2-deoxyglucose", "setting": "isolated rat adipocytes [1]; leptin 100 nM 16.5 h, insulin 10 nM", "value": 1451, "unit": "dpm"}, {"measurement": "glucose transport, uptake of 3H-labeled 2-deoxyglucose", "setting": "isolated rat adipocytes [1]; leptin 100 nM 16.5 h, insulin 50 nM", "value": 1723, "unit": "dpm"}, {"measurement": "glucose transport, uptake of 3H-labeled 2-deoxyglucose", "setting": "isolated rat adipocytes [1]; leptin 100 nM 16.5 h, no insulin (basal)", "value": 747, "unit": "dpm"}, {"measurement": "insulin sensitivity of stimulation of glucose transport", "setting": "isolated rat adipocytes [1]; leptin, basal values unaffected", "value": "drastically reduced"}, {"measurement": "Glucose Transport, stimulation factor for insulin (stimulated/basal)", "setting": "isolated rat adipocytes [2]", "value": 3.55}]}]}
